From the supplement of paper PMC10307832

Columns and labels:
Experiment in all cases: relative viability (nuclei count vs DMSO), 5 days (fraction); higher = more cells survive
LCLC-103H = system: LCLC-103H
Outline: (§1)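 Relative viability was taken as the ratio of nuclei in treated wells to nuclei in vehicle wells. Lung cancer cell lines in 1536-well plates received compounds by pin tool one day after seeding, either one drug alone or a fixed anchor-drug dose plus five library-drug doses (not always all listed) in √10 steps. Nuclei were counted on 4× images after 5 days of treatment, and values are medians of duplicate plates.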

NCI-H1793 = system: NCI-H1793
Outline: as §1

LXF-289 = system: LXF-289
Outline: as §1

NCI-H596 = system: NCI-H596
Outline: as §1

NCI-H322M = system: NCI-H322M
Outline: as §1

EPLC-272H = system: EPLC-272H
Outline: as §1

NCI-H3122 = system: NCI-H3122
Outline: as §1

NCI-H2023 = system: NCI-H2023
Outline: as §1

UMC-11 = system: UMC-11
Outline: as §1

BEN = system: BEN
Outline: as §1

NCI-H2126 = system: NCI-H2126
Outline: as §1

NCI-H358 = system: NCI-H358
Outline: as §1

EMC-BAC-2 = system: EMC-BAC-2
Outline: as §1

EKVX = system: EKVX
Outline: as §1

NCI-H1650 = system: NCI-H1650
Outline: as §1

NCI-H2087 = system: NCI-H2087
Outline: as §1

SW 1573 = system: SW 1573
Outline: as §1

A-427 = system: A-427
Outline: as §1

SK-LU-1 = system: SK-LU-1
Outline: as §1

NCI-H1651 = system: NCI-H1651
Outline: as §1

COR-L23 = system: COR-L23
Outline: as §1

HCC-44 = system: HCC-44
Outline: as §1

201T = system: 201T
Outline: as §1

Oc1nc(-c2ccc(C(F)(F)F)cc2)nc2c1CSCC2 [XAV939] + O=C(c1cc(Cc2n[nH]c(=O)c3ccccc23)ccc1F)N1CCN(C(=O)C2CC2)CC1 [Olaparib] (partner 8 µM)
relative viability (LCLC-103H; first compound 0.08 µM): 0.833
relative viability (LCLC-103H; first compound 0.253 µM): 0.691
relative viability (LCLC-103H; first compound 0.8 µM): 0.725
relative viability (LCLC-103H; first compound 2.53 µM): 0.767
relative viability (NCI-H1793; first compound 0.08 µM): 1.15
relative viability (NCI-H1793; first compound 0.253 µM): 0.707
relative viability (NCI-H1793; first compound 0.8 µM): 0.916
relative viability (NCI-H1793; first compound 2.53 µM): 0.646
relative viability (LXF-289; first compound 0.08 µM): 1.13
relative viability (LXF-289; first compound 0.253 µM): 1.05
relative viability (LXF-289; first compound 0.8 µM): 1.08
relative viability (LXF-289; first compound 2.53 µM): 1.07
relative viability (NCI-H596; first compound 0.08 µM): 0.769
relative viability (NCI-H596; first compound 0.253 µM): 0.644
relative viability (NCI-H596; first compound 0.8 µM): 0.776
relative viability (NCI-H596; first compound 2.53 µM): 0.556
relative viability (NCI-H322M; first compound 0.08 µM): 0.874
relative viability (NCI-H322M; first compound 0.253 µM): 0.752
relative viability (NCI-H322M; first compound 0.8 µM): 0.667
relative viability (NCI-H322M; first compound 2.53 µM): 0.661
relative viability (EPLC-272H; first compound 0.08 µM): 0.745
relative viability (EPLC-272H; first compound 0.253 µM): 0.89
relative viability (EPLC-272H; first compound 0.8 µM): 0.97
relative viability (EPLC-272H; first compound 2.53 µM): 0.719
relative viability (NCI-H3122; first compound 0.08 µM): 0.706
relative viability (NCI-H3122; first compound 0.253 µM): 0.574
relative viability (NCI-H3122; first compound 0.8 µM): 0.538
relative viability (NCI-H3122; first compound 2.53 µM): 0.468
relative viability (NCI-H2023; first compound 0.08 µM): 0.531
relative viability (NCI-H2023; first compound 0.253 µM): 0.38
relative viability (NCI-H2023; first compound 0.8 µM): 0.463
relative viability (NCI-H2023; first compound 2.53 µM): 0.402
relative viability (UMC-11; first compound 0.08 µM): 0.488
relative viability (UMC-11; first compound 0.253 µM): 0.327
relative viability (UMC-11; first compound 0.8 µM): 0.327
relative viability (UMC-11; first compound 2.53 µM): 0.274
relative viability (BEN; first compound 0.08 µM): 1.14
relative viability (BEN; first compound 0.253 µM): 1.04
relative viability (BEN; first compound 0.8 µM): 1.02
relative viability (BEN; first compound 2.53 µM): 0.845
relative viability (NCI-H2126; first compound 0.08 µM): 0.962
relative viability (NCI-H2126; first compound 0.253 µM): 0.839
relative viability (NCI-H2126; first compound 0.8 µM): 0.865
relative viability (NCI-H2126; first compound 2.53 µM): 0.855
relative viability (NCI-H358; first compound 0.08 µM): 0.615
relative viability (NCI-H358; first compound 0.253 µM): 0.5
relative viability (NCI-H358; first compound 0.8 µM): 0.598
relative viability (NCI-H358; first compound 2.53 µM): 0.563
relative viability (EMC-BAC-2; first compound 0.08 µM): 0.533
relative viability (EMC-BAC-2; first compound 0.253 µM): 0.477
relative viability (EMC-BAC-2; first compound 0.8 µM): 0.478
relative viability (EMC-BAC-2; first compound 2.53 µM): 0.301
relative viability (EKVX; first compound 0.08 µM): 0.929
relative viability (EKVX; first compound 0.253 µM): 0.514
relative viability (EKVX; first compound 0.8 µM): 0.65
relative viability (EKVX; first compound 2.53 µM): 0.378
relative viability (NCI-H1650; first compound 0.08 µM): 0.762
relative viability (NCI-H1650; first compound 0.253 µM): 0.633
relative viability (NCI-H1650; first compound 0.8 µM): 0.749
relative viability (NCI-H1650; first compound 2.53 µM): 0.61
relative viability (NCI-H2087; first compound 0.08 µM): 0.625
relative viability (NCI-H2087; first compound 0.253 µM): 0.533
relative viability (NCI-H2087; first compound 0.8 µM): 0.665
relative viability (NCI-H2087; first compound 2.53 µM): 0.464
relative viability (SW 1573; first compound 0.08 µM): 0.437
relative viability (SW 1573; first compound 0.253 µM): 0.499
relative viability (SW 1573; first compound 0.8 µM): 0.485
relative viability (SW 1573; first compound 2.53 µM): 0.379
relative viability (A-427; first compound 0.08 µM): 0.785
relative viability (A-427; first compound 0.253 µM): 0.584
relative viability (A-427; first compound 0.8 µM): 0.706
relative viability (A-427; first compound 2.53 µM): 0.663
relative viability (SK-LU-1; first compound 0.08 µM): 0.5
relative viability (SK-LU-1; first compound 0.253 µM): 0.481
relative viability (SK-LU-1; first compound 0.8 µM): 0.437
relative viability (SK-LU-1; first compound 2.53 µM): 0.596
relative viability (NCI-H1651; first compound 0.08 µM): 0.181
relative viability (NCI-H1651; first compound 0.253 µM): 0.19
relative viability (NCI-H1651; first compound 0.8 µM): 0.205
relative viability (NCI-H1651; first compound 2.53 µM): 0.196
relative viability (COR-L23; first compound 0.08 µM): 0.321
relative viability (COR-L23; first compound 0.253 µM): 0.386
relative viability (COR-L23; first compound 0.8 µM): 0.315
relative viability (COR-L23; first compound 2.53 µM): 0.29
relative viability (HCC-44; first compound 0.08 µM): 0.935
relative viability (HCC-44; first compound 0.253 µM): 0.904
relative viability (HCC-44; first compound 0.8 µM): 0.958
relative viability (HCC-44; first compound 2.53 µM): 0.866
relative viability (201T; first compound 0.08 µM): 0.855
relative viability (201T; first compound 0.253 µM): 0.814
relative viability (201T; first compound 0.8 µM): 0.687
relative viability (201T; first compound 2.53 µM): 0.745
